On the set-up of series [1]: method as in PMID 14194764. As to conditions: after 6 days’ dietary exposure to DDT (1500 μg/g); cited from earlier work.
A further series deals with aquatic life. The arrangement: method as in earlier work. As to conditions: Canadian Sediment Quality Guidelines for the protection of aquatic life; cited from earlier work.
The conditions of series [2]: rainbow trout exposed in water; cited from earlier work.
Series [3] in a line: Elimination of DDTs from carp and carp tissues/organs after transfer to un-spiked sediment. The series is classed as in vivo, Cyprinus carpio. As to conditions: for elimination percentage in heart: carp heart; for percentage eliminated from brain: carp brain; for percentage eliminated from brain / percentage eliminated from kidney: end of experiments; for elimination percentage from gallbladder: carp gallbladder; for percentage eliminated from kidney: carp kidney. The method, then: (§1) Environmentally relevant concentration exposure was conducted according to Organization for Economic Cooperation and Development (OECD section 305 and 315) test guidelinesn, [52]. Tubifex tubifex (Oligochaeta, Tubificidae) was chosen as prey, which could accumulate DDTs from sediment and transfer them to carp (Cyprinus carpio). T. tubifex is one of the most widespread and ubiquitous groups, which was considered to be a good bio-indicator[53], [54]. Carp are omnivorous demersal fish in fresh water ecosystems, which can serve as bio-indicators of environmental contaminants and play significant roles in assessing potential risk[44]. Adult T. tubifex and carp (2.0 ± 0.2 g, about 5 cm in length, ignore the gender) were obtained from Guan Yuan market (Beijing, China) and acclimatized in the laboratory for 2 weeks. T. tubifex (80 g) and ten fish were added into the sediment-water system for the exposure experiment. Twenty-seven glass aquariums with spiked sediment were cultivated at 14 h/10 h photoperiods and at 20 ± 2 °C for 28 days (nine aquariums were used to analyze the individual fish and T. tubifex worms, eighteen aquariums were used to analyze the tissue distribution and toxic effects). The overlying water was gently aerated and unchanged. Overlying water, fish (one from each aquariums), worms (about 1 g) and sediment were sampled on the 1st, 3ed, 5th, 9th, 14th, 21st, and 28th day. At the end of bioaccumulation experiments, all the fish and worms were transferred to un-spiked sediment for elimination experiments, respectively. Overlying water, fish (one from each aquariums), worms (about 1 g) and sediment were sampled on the 1st, 3ed, 5th, 7th, and 10th day. […] Fish were euthanized with an ice/water mixture.
(§2) The different tissues/organs of carp were extracted with different methods. Details of the extraction process please refer to the Supplementary Material. The lipid content of animals was measured according to Bligh and Dyer[55]. […] Details please refer to the Supplemental Material.

Series [4] is described as follows: Bioaccumulation of DDTs in carp and carp tissues/organs in DDT spiked-sediment microcosm (food web). The series is classed as in vivo, Cyprinus carpio. As to conditions: treatment group; for concentration at 9 day / concentration at 28 days: Cyprinus carpio (carp), other: spiked sediment-water system with T. tubifex as prey; for concentration at 9 day: whole fish (wet weight), whole carp, read-out: concentration in carp at steady state; for maximum concentration in gastrointestinal tract: first 5 days; for concentration at 28 days: brain, end of the experiments. As for the experimental part:
(§3) The sediment was prepared in a glass aquarium with 3.6 kg soil (collected from China Agricultural University, and the physicochemical properties of the soil were as follows: clay, 34.8 ± 0.1%; silt, 10.0 ± 2.8%; sand, 55.2 ± 2.8%; organic matter, 24.4 ± 0.8 g/kg; and pH, 7.74 ± 0.05.) and 16 L de-chlorinated tap water, and incubated for seven days. The overlying water was discarded, and 400 g sediment (dry weight) was spiked with o,p’-DDT (50 ng/μL, 1600 μL) and p,p’-DDT (50 ng/μL, 1600 μL) in acetone. After the solvent was volatilized, the sediment was blended with the 3.6 kg sediment (dry weight) thoroughly. Dechlorinated tap water was added, and system was allowed to equilibrate for 48 h.
as §1, with “Tubifex tubifex (Oligochaeta, Tubificidae) was chosen as prey, which could accumulate DDTs from sediment and transfer them to carp (Cyprinus carpio).” left out
as §2

Series [5] can be described thus: Elimination of DDTs in T. tubifex after transfer to un-spiked sediment. Type of series: in vivo. To be noted: elimination experiment in un-spiked sediment. The method, then: as §1, §2
Series [6] can be described thus: Bioaccumulation of DDTs in T. tubifex in DDT spiked-sediment microcosm. The series is classed as in vivo. To be noted: for concentration at 28 day: Tubifex tubifex, whole worm (wet weight), other: exposure in spiked sediment-water system, day 28; for concentration at 28 day / maximum concentration in T. tubifex: treatment group; for maximum concentration in T. tubifex: fifth day. As for the experimental part: as §3, §1
The control treatments (twenty-seven glass aquariums: nine aquariums were used to analyze the individual fish and T. tubifex worms, eighteen aquariums were used to analyze the tissue distribution and toxic effects) were composed of worms, fish and un-spiked sediment. The cultivation, sample time and dissection procedures were the same to the exposure experiments.
as §2

With `Clc1ccc(C(c2ccc(Cl)cc2)C(Cl)(Cl)Cl)cc1` [DDT, Dichlorodiphenyltrichloroethane], in series [1], the “ratio DDT:DDD:DDE detected in the livers of rats” value is “approximately 3”. The “effects range-low (ERL) value in sediments” value with aquatic life is 1 ng/g.

On to `Oc1c(Cl)c(Cl)c(Cl)c(Cl)c1Cl` [pentachlorophenol], for which, in series [2], the “dose eliminated in feces and bile” value was 30%; the “dose eliminated in urine” value is given as 20%; the “dose eliminated through the gills” value is 50%.

Consider `Clc1ccc(C(c2ccccc2Cl)C(Cl)(Cl)Cl)cc1` (centres unmarked) [o,p’-DDT], for which the “elimination percentage in heart” value in series [3] was determined as 51.9%. Moreover, the concentration at 9 day in series [4] (9th day) worked out at 39.1 ± 0.3 ng/g. In series [4] (carp, 9th day), the “concentration in brain (maximum)” value was determined as 40.3 ± 1.8 ng/gwwt and the “maximum concentration in kidney” value is recorded as 96.2 ± 2.0 ng/gwwt. In series [4] (carp), the “maximum concentration in gastrointestinal tract” value was 40.9 ± 0.9 ng/gwwt. Moreover, the “elimination efficiency in T. tubifex” value in series [5] was 65.7%. In addition, in series [6], the concentration at 28 day is 5.6 ± 0.1 ng/g and the “maximum concentration in T. tubifex” value is reported as 74.6 ± 1.8 ng/gwwt.

For `Clc1ccc(C(c2ccc(Cl)cc2)C(Cl)Cl)cc1` [p,p’-DDD], in series [3], the “percentage eliminated from brain” value is on record as 61.4%, the “elimination percentage from gallbladder” value came out at 64.1%, the “elimination percentage in heart” value was 69.6% and the “percentage eliminated from kidney” value amounted to 63.9%. For the same compound, the concentration at 28 days in series [4] (carp) was 68.4 ± 0.6 ng/g. Further, the “maximum concentration in kidney” value in series [4] (carp, 28th day) is recorded as 89.9 ± 3.7 ng/gwwt. Further, in series [5], the “elimination efficiency in T. tubifex” value came out at 58.2%.

As for `ClC(Cl)=C(c1ccc(Cl)cc1)c1ccccc1Cl` [o,p’-DDE], in series [3], the “percentage eliminated from brain” value stood at 55.0%, the “elimination percentage from gallbladder” value came out at 24.1% and the “percentage eliminated from kidney” value is on record as 47.5%. Further, the “concentration in brain (maximum)” value in series [4] (carp, 9th day) amounted to 3.1 ± 0.1 ng/gwwt. Besides, the “elimination efficiency in T. tubifex” value in series [5] was determined as 39.5%. The “maximum concentration in T. tubifex” value in series [6] is reported as 2.1 ± 0.2 ng/gwwt.

Consider `ClC(Cl)=C(c1ccc(Cl)cc1)c1ccc(Cl)cc1` [p,p’-DDE], for which, in series [3], the “percentage eliminated from brain” value is listed as 52.8%, the “elimination percentage from gallbladder” value amounted to 50.8%, the “elimination percentage in heart” value came out at 59.9% and the “percentage eliminated from kidney” value turned out to be 48.7%. Moreover, in series [4] (carp), the concentration at 28 days was found to be 41.6 ± 0.5 ng/g. For the same compound, in series [4] (carp, 21st day), the “highest concentration in kidney” value was found to be 46.9 ± 0.6 ng/gwwt and the “maximum concentration in muscle” value was 11.7 ± 2.6 ng/gwwt. Further, in series [5], the “elimination efficiency in T. tubifex” value was 25.7%. The “maximum concentration in T. tubifex, control group” value in series [6] (control group (un-spiked sediment), 14th day) was found to be 28.2 ± 1.1 ng/gwwt. The “maximum concentration in T. tubifex” value in series [6] was determined as 21.7 ± 0.8 ng/gwwt.

Take `Clc1ccc(C(c2ccccc2Cl)C(Cl)Cl)cc1` (centres unmarked) [o,p’-DDD]: in series [3], the “percentage eliminated from brain” value came to 65.5%, the “elimination percentage from gallbladder” value is 66.9%, the “elimination percentage in heart” value was found to be 72.5% and the “percentage eliminated from kidney” value is reported as 65.4%. In addition, the concentration at 28 days in series [4] (carp) was found to be 45.7 ± 0.3 ng/g. Further, the “maximum concentration in kidney” value in series [4] (carp, 28th day) came to 73.5 ± 1.9 ng/gwwt. In addition, in series [5], the “elimination efficiency in T. tubifex” value is reported as 49.0%.

For the compound `Clc1ccc(C(c2ccc(Cl)cc2)C(Cl)(Cl)Cl)cc1` [p,p’-DDT], in series [4] (9th day), the concentration at 9 day came to 57.3 ± 3.1 ng/g. Also, in series [4] (carp, 9th day), the “concentration in brain (maximum)” value is given as 49.1 ± 1.0 ng/gwwt and the “maximum concentration in kidney” value turned out to be 124.0 ± 2.6 ng/gwwt. Besides, the “maximum concentration in gastrointestinal tract” value in series [4] (carp) is on record as 43.2 ± 0.5 ng/gwwt. Further, in series [5], the “elimination efficiency in T. tubifex” value is 73.6%. Also, in series [6], the concentration at 28 day worked out at 18.4 ± 2.2 ng/g and the “maximum concentration in T. tubifex” value was 165.5 ± 2.7 ng/gwwt.

These data come from paper PMC5442124 (Scientific Reports, 2017).
